Results from patent publication US20090098195A1 (priority 2004, published 2009).
Where “and” joins values, the source holds several entries; their conditions need not be identical. Equal values may be shown once. Read-outs that look alike come from different tables or passages of the source.

Assays:
[1] = system: influenza virus A/PR/8/34 (H1N1); format: cell-based; settings: liposomes containing the peptide; egg PC concentration of 1 mM (peptide concentration: 0.15 mM); vs liposome without peptide
[2] = format: binding; settings: GM3 monolayer, QCM
[3] = format: binding; settings: 6′GM3 monolayer, QCM
[4] = format: binding; settings: LacCer monolayer, QCM
[5] = format: binding; settings: GalCer monolayer, QCM
[6] = format: binding; settings: QCM; data not shown

Substance	percent inhibition of infection [1] [%]	Kd [2] [µM]	Δmmax (maximum binding amount) [2]	Kd [3] [µM]	Δmmax (maximum binding amount) [3] [ng cm^−2]	Kd [4] [µM]	Δmmax (maximum binding amount) [4] [ng cm^−2]	Kd [5] [µM]	Δmmax (maximum binding amount) [5] [ng cm^−2]	binding to glycosphingolipids [6]
ARLSPTMVHPRGAQP [A1 peptide, reference compound]	76	–	–	–	–	–	–	–	–	–
GWWYKGRARPVSAVA [c01-peptide, H-GWWYKGRARPVSAVA-NH2]	83	1.8	46 ng cm^−2 and 46 ± 2.4 ng cm^−2	4 ± 1.1	93 ± 4.6	4.8 ± 1.6	74 ± 5.2	13 ± 3.3	64 ± 4.5	–
H-AETVESCLAKPHTEN-NH2 [control peptide]	–	–	–	–	–	–	–	–	–	bound to none of the glycosphingolipids
RAVWRHSVATPSHSV [c03-peptide, H-RAVWRHSVATPSHSV-NH2]	94	0.34	11 ng cm^−2 and 11 ± 0.1 ng cm^−2	7 ± 2.2	56 ± 3.1	5.9 ± 1.2	37 ± 1.8	–	<3	–
